Results as given in ChEMBL document CHEMBL5537159, “Discovery and SAR of JTE-151: A Novel RORγ Inhibitor for Clinical Development” (J Med Chem, 2024).

Tests used:
[1] = Lipophilicity, logD of compound by RP-HPLC analysis; assay type: physicochemical
[2] = Total body clearance in CD(SD) rat at 1 mg/kg, iv administered as single dose and measured after 24 hrs; assay type: ADME, organism-based; conditions: in vivo
[3] = Volume of distribution at steady state in CD(SD) rat at 1 mg/kg, iv administered as single dose and measured after 24 hrs; assay type: ADME, organism-based; conditions: in vivo, read-out: Vdss
[4] = AUCinfinity in CD(SD) rat at 10 mg/kg, po administered as single dose and measured after 24 hrs; assay type: ADME, organism-based; conditions: in vivo
[5] = MRT in CD(SD) rat at 10 mg/kg, po administered as single dose and measured after 24 hrs; assay type: ADME, organism-based; conditions: in vivo
[6] = Oral bioavailability in CD(SD) rat at 10 mg/kg administered as single dose and measured after 24 hrs; assay type: ADME, organism-based; conditions: in vivo
[7] = Elimination half life in C57BL/6J mouse at 1 mg/kg, iv administered as single dose and measured after 24 hrs; assay type: ADME, organism-based; conditions: in vivo, read-out: beta t1/2 (converted)
[8] = MRT in C57BL/6J mouse at 3 mg/kg, po administered as single dose and measured after 24 hrs; assay type: ADME, organism-based; conditions: in vivo
[9] = Volume of distribution at steady state in Beagle dog at 1 mg/kg, iv administered as single dose and measured after 24 hrs; assay type: ADME, organism-based, Canis lupus familiaris; conditions: in vivo, read-out: Vdss
[10] = Oral bioavailability in Beagle dog at 3 mg/kg administered as single dose and measured after 24 hrs; assay type: ADME, organism-based, Canis lupus familiaris; conditions: in vivo
[11] = Elimination half life in cynomolgus monkey at 1 mg/kg, iv administered as single dose and measured after 24 hrs; assay type: ADME, organism-based, Macaca fascicularis; conditions: in vivo, read-out: beta t1/2 (converted)
[12] = Total body clearance in cynomolgus monkey at 1 mg/kg, iv administered as single dose and measured after 24 hrs; assay type: ADME, organism-based, Macaca fascicularis; conditions: in vivo
[13] = Volume of distribution at steady state in cynomolgus monkey at 1 mg/kg, iv administered as single dose and measured after 24 hrs; assay type: ADME, organism-based, Macaca fascicularis; conditions: in vivo, read-out: Vdss
[14] = Selectivity ratio of antagonist activity at human RORbeta to inhibition of RORgamma (unknown origin)
[15] = Selectivity ratio of antagonist activity at human SF1 to inhibition of RORgamma (unknown origin)
[16] = Selectivity ratio of antagonist activity at human AR to inhibition of RORgamma (unknown origin)
[17] = Selectivity ratio of antagonist activity at human VDR to inhibition of RORgamma (unknown origin)
[18] = Selectivity ratio of antagonist activity at human PPARgamma to inhibition of RORgamma (unknown origin)
[19] = Selectivity ratio of antagonist activity at human RXRalpha to inhibition of RORgamma (unknown origin)
[20] = Selectivity ratio of agonist activity at human ERalpha to inhibition of RORgamma (unknown origin)
[21] = Selectivity ratio of agonist activity at human PR to inhibition of RORgamma (unknown origin)
[22] = Selectivity ratio of agonist activity at human VDR to inhibition of RORgamma (unknown origin)
[23] = Selectivity ratio of agonist activity at human FXR to inhibition of RORgamma (unknown origin)
[24] = Selectivity ratio of agonist activity at human RXRalpha to inhibition of RORgamma (unknown origin)
Adenosine receptor A1 = Adenosine receptor A1 (Homo sapiens, UniProt P30542); assay: Inhibition of human Adenosine A1 receptor
[25] = Inhibition of rat GABA-B receptor
Histamine H1 receptor = Histamine H1 receptor (Homo sapiens, UniProt P35367); assay: Inhibition of human histamine H1 receptor
Histamine H2 receptor = Histamine H2 receptor (Homo sapiens, UniProt P25021); assay: Inhibition of human histamine H2 receptor
Histamine H3 receptor = Histamine H3 receptor (Homo sapiens, UniProt Q9Y5N1); assay: Inhibition of human histamine H3 receptor
Acetylcholinesterase = Acetylcholinesterase (Electrophorus electricus, UniProt O42275); assay: Inhibition of Electric eel AChE
[26] = target: Amine oxidase [flavin-containing] A (Homo sapiens, UniProt P21397); assay: Inhibition of human MAO-A
Cytochrome P450 2C8 = Cytochrome P450 2C8 (Homo sapiens, UniProt P10632); assay: Inhibition of CYP2C8 in human liver microsomes; assay type: ADME, Microsome
Cytochrome P450 2C9 = Cytochrome P450 2C9 (Homo sapiens, UniProt P11712); assay: Inhibition of CYP2C9 in human liver microsomes; assay type: ADME, Microsome
Cytochrome P450 3A4 = Cytochrome P450 3A4 (Homo sapiens, UniProt P08684); assay: Inhibition of CYP3A4 in human liver microsomes using testosterone as substrate; assay type: ADME, Microsome
[27] = Genotoxicity in Salmonella typhimurium TA1535 at 188 to 5000 ug in presence of S9 fraction by bacterial reverse mutation test; assay type: toxicity, subcellular, Salmonella enterica subsp. enterica serovar Typhimurium; conditions: dose 188-5000 µg
[28] = Genotoxicity in Salmonella typhimurium TA1535 at 188 to 5000 ug in absence of S9 fraction by bacterial reverse mutation test; assay type: toxicity, Salmonella enterica subsp. enterica serovar Typhimurium; conditions: in vivo; dose 188-5000 µg
[29] = Genotoxicity in Salmonella typhimurium TA98 at 23 to 750 ug in absence of S9 fraction by bacterial reverse mutation test; assay type: toxicity, Salmonella enterica subsp. enterica serovar Typhimurium; conditions: in vivo; dose 23-750 µg
[30] = Toxicity in CHL cells assessed as chromosomal aberration at 60 to 80 ug/ml incubated for 6 hrs in absence of S9 fraction; assay type: cell-based, Cricetulus griseus; conditions: chinese hamster, dose 60-80 µg/ml
[31] = Toxicity in CHL cells assessed as chromosomal aberration at 30 to 50 ug/ml incubated for 24 hrs in presence of S9 fraction; assay type: subcellular, Cricetulus griseus; conditions: chinese hamster, s9, 24 h, dose 30-50 µg/ml
[32] = Cmax in human at 100 […], po administered as single dose and measured upto 144 hrs; assay type: ADME, organism-based; conditions: in vivo
[33] = Cmax in human at 200 […], po administered as single dose and measured upto 144 hrs; assay type: ADME, organism-based; conditions: in vivo
[34] = Tmax in human at 30 […], po administered as single dose and measured upto 144 hrs; assay type: ADME, organism-based; conditions: in vivo
[35] = Tmax in human at 100 […], po administered as single dose and measured upto 144 hrs; assay type: ADME, organism-based; conditions: in vivo
[36] = Tmax in human at 600 […], po administered as single dose and measured upto 144 hrs; assay type: ADME, organism-based; conditions: in vivo
[37] = Tmax in human at 1000 […], po administered as single dose and measured upto 144 hrs; assay type: ADME, organism-based; conditions: in vivo
[38] = AUClast in human at 30 mg/kg, po administered as single dose and measured upto 144 hrs; assay type: ADME, organism-based; conditions: in vivo
[39] = AUClast in human at 1000 mg/kg, po administered as single dose and measured upto 144 hrs; assay type: ADME, organism-based; conditions: in vivo
[40] = Elimination half life in human at 60 mg/kg, po administered as single dose and measured upto 144 hrs; assay type: ADME, organism-based; conditions: in vivo, read-out: beta t1/2 (converted)
[41] = Elimination half life in human at 400 mg/kg, po administered as single dose and measured upto 144 hrs; assay type: ADME, organism-based; conditions: in vivo, read-out: beta t1/2 (converted)
[42] = Elimination half life in human at 1000 mg/kg, po administered as single dose and measured upto 144 hrs; assay type: ADME, organism-based; conditions: in vivo, read-out: beta t1/2 (converted)
[43] = Toxicity in Beagle dog assessed as development-limiting toxicity at 100 mg/kg, po bid administered 2 doses at 4 hrs interval and measured on day 1,14 and 28; assay type: organism-based, Canis lupus familiaris; conditions: in vivo, 672 h, time 28 day

Amine oxidase [flavin-containing] A, sequence (P21397 whole entry): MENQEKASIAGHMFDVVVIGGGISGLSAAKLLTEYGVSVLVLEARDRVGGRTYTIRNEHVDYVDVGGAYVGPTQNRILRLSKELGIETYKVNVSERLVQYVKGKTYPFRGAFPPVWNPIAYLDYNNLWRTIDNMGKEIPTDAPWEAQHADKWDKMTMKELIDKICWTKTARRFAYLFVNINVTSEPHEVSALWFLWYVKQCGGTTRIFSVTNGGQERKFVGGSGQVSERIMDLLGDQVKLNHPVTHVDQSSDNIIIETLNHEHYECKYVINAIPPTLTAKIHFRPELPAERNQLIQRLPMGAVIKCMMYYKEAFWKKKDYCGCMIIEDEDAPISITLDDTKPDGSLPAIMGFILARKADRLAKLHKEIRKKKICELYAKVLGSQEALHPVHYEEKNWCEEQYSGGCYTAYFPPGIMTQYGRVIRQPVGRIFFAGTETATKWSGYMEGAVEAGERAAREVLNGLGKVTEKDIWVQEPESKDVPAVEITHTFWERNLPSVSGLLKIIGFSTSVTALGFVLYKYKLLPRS
Acetylcholinesterase, sequence (O42275 whole entry): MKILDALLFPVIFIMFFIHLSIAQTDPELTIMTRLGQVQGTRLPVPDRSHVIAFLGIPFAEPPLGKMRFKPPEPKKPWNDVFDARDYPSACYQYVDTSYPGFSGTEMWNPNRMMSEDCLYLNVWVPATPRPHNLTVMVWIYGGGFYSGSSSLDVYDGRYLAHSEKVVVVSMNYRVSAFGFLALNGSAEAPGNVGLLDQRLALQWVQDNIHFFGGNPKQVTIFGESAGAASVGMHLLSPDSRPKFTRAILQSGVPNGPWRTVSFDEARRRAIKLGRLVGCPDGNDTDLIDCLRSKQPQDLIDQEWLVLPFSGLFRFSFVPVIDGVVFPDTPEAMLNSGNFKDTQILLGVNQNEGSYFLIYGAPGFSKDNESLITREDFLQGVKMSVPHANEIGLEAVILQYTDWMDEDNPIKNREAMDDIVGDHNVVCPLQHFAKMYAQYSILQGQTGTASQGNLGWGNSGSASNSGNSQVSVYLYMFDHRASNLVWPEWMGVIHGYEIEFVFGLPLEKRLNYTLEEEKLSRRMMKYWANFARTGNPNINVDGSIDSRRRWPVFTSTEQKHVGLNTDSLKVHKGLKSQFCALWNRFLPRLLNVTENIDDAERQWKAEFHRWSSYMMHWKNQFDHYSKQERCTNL
Adenosine receptor A1, sequence (P30542 whole entry): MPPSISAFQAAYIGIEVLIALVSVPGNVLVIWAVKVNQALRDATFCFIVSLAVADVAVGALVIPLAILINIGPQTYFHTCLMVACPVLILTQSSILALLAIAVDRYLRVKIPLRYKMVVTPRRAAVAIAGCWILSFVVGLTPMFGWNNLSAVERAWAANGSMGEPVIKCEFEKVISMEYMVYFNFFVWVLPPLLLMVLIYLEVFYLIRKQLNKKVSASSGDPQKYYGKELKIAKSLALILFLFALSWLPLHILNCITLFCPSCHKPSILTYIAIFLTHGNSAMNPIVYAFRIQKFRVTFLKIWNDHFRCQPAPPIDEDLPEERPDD
Histamine H1 receptor, sequence (P35367 whole entry): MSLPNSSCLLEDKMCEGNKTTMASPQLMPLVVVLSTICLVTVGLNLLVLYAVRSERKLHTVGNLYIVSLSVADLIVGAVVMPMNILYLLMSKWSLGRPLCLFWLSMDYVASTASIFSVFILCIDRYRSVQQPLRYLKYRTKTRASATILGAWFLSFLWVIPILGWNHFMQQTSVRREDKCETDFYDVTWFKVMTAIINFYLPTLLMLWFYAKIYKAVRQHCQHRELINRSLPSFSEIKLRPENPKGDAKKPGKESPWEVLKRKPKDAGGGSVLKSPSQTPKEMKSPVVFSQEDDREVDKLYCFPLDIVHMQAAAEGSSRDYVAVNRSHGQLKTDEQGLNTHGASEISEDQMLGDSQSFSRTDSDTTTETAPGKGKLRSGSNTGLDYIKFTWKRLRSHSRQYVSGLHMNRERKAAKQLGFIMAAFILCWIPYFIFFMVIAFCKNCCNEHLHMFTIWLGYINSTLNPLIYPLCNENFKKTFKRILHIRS
Cytochrome P450 3A4, sequence (P08684 whole entry): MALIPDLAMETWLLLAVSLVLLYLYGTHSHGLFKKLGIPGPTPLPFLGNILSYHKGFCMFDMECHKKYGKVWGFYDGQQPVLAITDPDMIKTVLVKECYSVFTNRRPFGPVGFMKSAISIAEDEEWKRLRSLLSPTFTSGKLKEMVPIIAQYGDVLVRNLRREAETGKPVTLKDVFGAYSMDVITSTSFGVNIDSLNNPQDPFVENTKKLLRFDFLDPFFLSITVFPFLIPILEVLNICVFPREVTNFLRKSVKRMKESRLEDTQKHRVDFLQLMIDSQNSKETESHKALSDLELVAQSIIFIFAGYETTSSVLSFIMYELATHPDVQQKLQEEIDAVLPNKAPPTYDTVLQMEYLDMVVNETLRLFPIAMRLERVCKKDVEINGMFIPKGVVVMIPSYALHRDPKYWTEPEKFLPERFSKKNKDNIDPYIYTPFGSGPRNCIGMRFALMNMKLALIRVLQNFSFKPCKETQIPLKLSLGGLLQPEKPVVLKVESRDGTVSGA
Histamine H3 receptor, sequence (Q9Y5N1 whole entry): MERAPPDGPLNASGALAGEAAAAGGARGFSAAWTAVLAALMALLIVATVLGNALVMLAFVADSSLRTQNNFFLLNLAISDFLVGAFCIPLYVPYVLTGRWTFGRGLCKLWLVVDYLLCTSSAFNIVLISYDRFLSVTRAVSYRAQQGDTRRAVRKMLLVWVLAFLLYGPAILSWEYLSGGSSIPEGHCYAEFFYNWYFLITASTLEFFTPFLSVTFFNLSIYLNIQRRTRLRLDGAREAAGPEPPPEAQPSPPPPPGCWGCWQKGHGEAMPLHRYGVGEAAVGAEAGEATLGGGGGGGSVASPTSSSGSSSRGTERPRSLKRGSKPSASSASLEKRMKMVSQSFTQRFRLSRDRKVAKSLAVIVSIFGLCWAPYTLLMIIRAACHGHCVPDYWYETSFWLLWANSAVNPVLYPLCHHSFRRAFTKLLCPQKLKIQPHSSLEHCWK
Histamine H2 receptor, sequence (P25021 whole entry): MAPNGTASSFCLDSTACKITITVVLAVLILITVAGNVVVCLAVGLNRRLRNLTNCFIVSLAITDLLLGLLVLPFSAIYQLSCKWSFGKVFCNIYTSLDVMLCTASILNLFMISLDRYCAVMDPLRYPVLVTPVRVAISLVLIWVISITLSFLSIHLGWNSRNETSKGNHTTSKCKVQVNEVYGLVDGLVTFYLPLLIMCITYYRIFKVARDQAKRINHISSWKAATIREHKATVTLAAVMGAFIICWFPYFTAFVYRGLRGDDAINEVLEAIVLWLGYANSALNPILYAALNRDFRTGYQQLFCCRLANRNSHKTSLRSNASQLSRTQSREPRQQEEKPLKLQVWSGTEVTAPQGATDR
Cytochrome P450 2C8, sequence (P10632 whole entry): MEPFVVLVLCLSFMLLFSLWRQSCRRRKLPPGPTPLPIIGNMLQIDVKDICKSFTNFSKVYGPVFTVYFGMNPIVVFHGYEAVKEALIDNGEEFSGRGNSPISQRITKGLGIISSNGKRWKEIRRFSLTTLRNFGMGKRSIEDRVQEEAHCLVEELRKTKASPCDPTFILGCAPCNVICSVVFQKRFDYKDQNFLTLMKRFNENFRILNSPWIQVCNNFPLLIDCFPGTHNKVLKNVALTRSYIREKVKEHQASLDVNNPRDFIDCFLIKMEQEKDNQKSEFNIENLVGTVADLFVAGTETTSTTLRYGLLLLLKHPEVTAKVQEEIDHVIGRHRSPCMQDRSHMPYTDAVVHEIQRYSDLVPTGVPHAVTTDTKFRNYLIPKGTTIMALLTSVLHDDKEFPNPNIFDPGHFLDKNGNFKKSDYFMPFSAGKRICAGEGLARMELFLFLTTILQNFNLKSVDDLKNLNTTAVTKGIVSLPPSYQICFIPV
Cytochrome P450 2C9, sequence (P11712 whole entry): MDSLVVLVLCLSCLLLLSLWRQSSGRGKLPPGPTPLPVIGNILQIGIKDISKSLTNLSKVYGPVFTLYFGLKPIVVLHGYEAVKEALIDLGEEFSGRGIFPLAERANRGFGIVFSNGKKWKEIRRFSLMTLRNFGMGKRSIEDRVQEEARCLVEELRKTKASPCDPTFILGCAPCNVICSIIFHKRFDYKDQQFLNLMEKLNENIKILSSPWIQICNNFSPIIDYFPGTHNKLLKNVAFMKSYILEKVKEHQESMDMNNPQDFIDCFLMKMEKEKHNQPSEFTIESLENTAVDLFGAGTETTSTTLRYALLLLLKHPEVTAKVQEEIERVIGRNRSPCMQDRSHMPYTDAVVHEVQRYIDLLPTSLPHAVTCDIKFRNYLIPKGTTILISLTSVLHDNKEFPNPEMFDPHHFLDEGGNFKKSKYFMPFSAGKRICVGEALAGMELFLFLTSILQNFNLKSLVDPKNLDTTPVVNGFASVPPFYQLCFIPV

## Cc1ccc(NC(=O)C[C@H](CCC(=O)O)c2noc([C@H]3C[C@@H](CC(C)(C)C)C3)c2C2CC2)c(Cl)c1
[1]
  logD: 5.1
[2]
  clearance: 1.83 mL/min/kg
[3]
  Vd: 0.34 L/kg
[4]
  AUC(0-inf): 191 µM·h
[5]
  MRT: 5.6 h
[6]
  bioavailability: 106%
[7]
  half-life: 3.8 h
[8]
  MRT: 5.8 h
[9]
  Vd: 0.19 L/kg
[10]
  bioavailability: 64%
[11]
  half-life: 5.9 h
[12]
  clearance: 3.17 mL/min/kg
[13]
  Vd: 0.36 L/kg
[14]
  Selectivity ratio: > 100
[15]
  Selectivity ratio: > 100
[16]
  Selectivity ratio: > 100
[17]
  Selectivity ratio: > 100
[18]
  Selectivity ratio: > 100
[19]
  Selectivity ratio: > 100
[20]
  Selectivity ratio: > 100
[21]
  Selectivity ratio: > 100
[22]
  Selectivity ratio: > 100
[23]
  Selectivity ratio: > 100
[24]
  Selectivity ratio: > 100
Adenosine receptor A1
  IC50: > 10 µM
[25]
  IC50: > 10 µM
Histamine H1 receptor
  IC50: > 10 µM
Histamine H2 receptor
  IC50: > 10 µM
Histamine H3 receptor
  IC50: > 10 µM
Acetylcholinesterase
  IC50: > 10 µM
[26]
  IC50: > 10 µM
Cytochrome P450 2C8
  IC50: 6.8 µM
Cytochrome P450 2C9
  IC50: > 10 µM
Cytochrome P450 3A4
  IC50: > 10 µM
[27]
  Activity: Non-Toxic
[28]
  Activity: Non-Toxic
[29]
  Activity: Non-Toxic
[30]
  Activity: Non-Toxic
[31]
  Activity: Non-Toxic
[32]
  Cmax: 3810 ng/mL
[33]
  Cmax: 8790 ng/mL
[34]
  Tmax: 2.77 h
[35]
  Tmax: 3.03 h
[36]
  Tmax: 3 h
[37]
  Tmax: 3.5 h
[38]
  AUC(0-t) at 144 h: 6.03 µg·h/mL
[39]
  AUC(0-t) at 144 h: 241 µg·h/mL
[40]
  half-life: 5.49 h
[41]
  half-life: 7.42 h
[42]
  half-life: 7.91 h
[43]
  Activity: Non-Toxic
